Results from patent US10087399B2, “Use of alkoxylated non-ionic surfactants as additive in aqueous membrane cleaning compositions” (BASF SE, priority 2012, dated 2018).

Experiments:
[1] = test system: Cobetia marina (DSMZ4741) bacterial fouling layer; assay: Cleaning of bacterial fouling layer on PA, fluorescence spectroscopy (DAPI / Concanavalin A); type: cell-based
Description: Bacterial Strain and Growth Conditions
To generate bacterial fouling layers, the marine bacterium Cobetia marina (DSMZ4741) was used in this study. The strain was purchased from the DSMZ culture collections, Germany. Sea Salt Peptone (SSP, all ingredients purchased from Sigma-Aldrich) (sea salt 20 g; peptone 18 g; deionised water 1,000 ml, pH 7.8) was used as the growth medium. The culture stock was maintained on Sea Salt Peptone Agar (SSPA, all ingredients purchased from Sigma-Aldrich) slants (sea salt 20 g; peptone 18 g; agar 30 g; deionised water 1,000 ml, pH 7.8). Prior to the experiments, the culture was grown in the SSP medium on a rotary shaker at 180 rpm at 28° C. for 20-22 h in order to obtain cells in the logphase.
Preparation of Bacterial Fouling Layers
The polyamid thin film substrates prepared on glass slides were conditioned for 24 h in artificial seawater (sea salt 20 g; deionised water 1,000 ml, pH 7.8) before being transferred to the bacterial cell suspensions. A freshly grown (logphase) bacterial suspension was prepared with an absorbance of 0.2 at a wavelength of 600 nm (DU 800, Beckman Coulter, Krefeld, Germany). The conditioned replicate slides (four for each assay) were placed into individual compartments of quadric petri dishes and 5 ml of the bacterial suspension was added thereby fully immersing the slides. The plates were placed in an incubator at 28° C. on a rotary shaker (90 rpm). After 1 h of incubation, the slides were transferred into new quadric petri dishes containing 5 ml of fresh SSP medium. The plates were incubated for another 4 h at 28° C. on a rotary shaker (90 rpm) for the attached bacteria to proliferate on the surface of the slides. At the end of the incubation, the slides were gently rinsed in artificial seawater to remove any non-adherent cells.
Cleaning Experiments with Bacterial Fouling Layers
Similar to the experiments using the multi-component molecular fouling layers, selected cleaning conditions (pH 12) and agents were tested for their ability to remove bacterial cells and EPS matrix. Additionally, the cleaning potential of the protease subtilisin (Subtilisin A type VIII from Bacillus licheniformis, 12 U/mg, Sigma-Aldrich) and methylglycine diacetic acid, sodium salt ([…], BASF SE) applied alone or in combination with the surfactant 2-propylheptanol, 6 EO, 1 PO (Lutensol⋅ XL 60, BASF SE) was evaluated. For that, the enzyme (100 μg/ml) and/or chelating agent (active concentration of 0.2%) and/or the surfactant (active concentration of 0.025%) were dissolved in 10 mM NaH2PO4 buffer (Sigma-Aldrich, pH 8.1). The bacterial fouling layers were immersed in the particular cleaning solution for 10 min at room temperature followed by rinsing in deionised water. After that, they were immediately fixed.
For fluorescence microscopy/spectroscopy and atomic force microscopy, bacterial fouling layers were fixed by transferring the respective slides into quadric petri dishes containing 4% paraformaldehyde (Sigma-Aldrich). After incubation for 15 min, the layers were rinsed with deionised water and dried by nitrogen.
For fluorescence staining, the slides were placed into custom-made incubation chambers in order to avoid backside staining. To stain the EPS matrix, Alexa 488-conjugated Concanavalin A (Molecular Probes, distributed by Invitrogen, Netherlands) dissolved in 0.1 M sodium bicarbonate (SigmaAldrich) buffer (pH 8.3) was added for 1 h in the dark (25 μg/cm^2). After incubation, the solution was removed and samples were washed with phosphate buffered saline (PBS, Sigma-Aldrich) twice. For staining of bacterial cells, DAPI solution (dissolved in PBS) was applied to Concanavalin A-stained samples for 5 min in the dark (25 μg/cm^2). After removal of the solution, the layers were washed with deionised water twice. Samples were taken out of the incubation chambers and dried by nitrogen.
Quantification of Cleaning Efficiency by Fluorescence Spectroscopy […]

[2] = Dynamic contact angle on PA; type: physicochemical; conditions: 0.2 g/l aqueous, 23° C.
Description: (§1) Determination of the Dynamic Contact Angle
(§2) The dynamic contact angle was measured with a video based high velocity measuring instrument for contact angle determination of the type OCAH 200 of the company Dataphysics Instruments 5 GmbH, Raiffeisenstr. 34, Fildersstadt, on the spin-coated glass slides.
(§3) The surfactants according to the invention listed in Tables […] used in an aqueous solution at a concentration of 0.2 g/l.
(§4) The contact angel is constantly determined (60 times per second) at 23° C. during 10 seconds after application. Under these conditions the contact angel of water without added surfactant remains at approximately at 65°. The contact angle on PA of the aqueous solutions of the branched tridecylethoxylates drops to 10° to 33°. The contact angle on PES of the aqueous solutions of the branched tridecylethoxylates drops to 17° to 37°. A contact angle after 10 seconds below 30° is preferred.

[3] = Dynamic contact angle on PES; type: physicochemical; conditions: 0.2 g/l aqueous, 23° C.
Description: as §1, §2, §3, §4

[4] = 10 mM NaH2PO4 buffer pH 8.1, surfactant 0.025%, chelating agent 0.2%, enzyme 100 μg/ml, 10 min

Molecule | Cleaning Performance, Cells (DAPI) ([1]; 0.025%, pH 12, 10 min) | Cleaning Performance, Matrix (Concanavalin A) ([1]; 0.025%, pH 12, 10 min) | Cleaning Performance, Cells (DAPI) [1, 4] | Cleaning Performance, Matrix (Concanavalin A) [1, 4] | further results
2-Propylheptanol, 6 EO [Nr 22] | 25,1% | 0,2% |  |  | 
2-Propylheptanol, 6 EO, 1 PO [Nr 18] | 51,7% | 9,6% | 31,8% | 16,5% | 
2-Propylheptanol, 6 EO, 5 PO [Nr 38] | 52,8% | 15,2% |  |  | 
CC(C(=O)[O-])N(CC(=O)[O-])CC(=O)[O-].[Na+].[Na+].[Na+] (stereo not shown) [Methylglycine diacetic acid, sodium salt, reference compound] | 73,5% | 42,5% | 47,7% | 42,5% | 
branched C13—OH, 7 EO [Nr 4] |  |  |  |  | Contact angle at 0.1 s ([2]; 0.1 s): 48.2 °; Contact angle at 1 s ([2]; 1.0 s): 32.3 °; Contact angle at 10 s ([2]; 10.0 s): 10.5 °; Contact angle at 0.1 s ([3]; 0.1 s): 45.0°; Contact angle at 1 s ([3]; 1.0 s): 34.8°; Contact angle at 10 s ([3]; 10.0 s): 17.9°
linear alkylbenzenesulfonate, sodium salt [Nr 41, reference compound] | 35,9% | 10,8% |  |  | 
Subtilisin: protease subtilisin (Subtilisin A type VIII from Bacillus licheniformis, 12 U/mg, Sigma-Aldrich) (protein, UniProt P00780 106-379, looked up) Subtilisin Carlsberg: AQTVPYGIPLIKADKVQAQGFKGANVKVAVLDTGIQASHPDLNVVGGASFVAGEAYNTDGNGHGTHVAGTVAALDNTTGVLGVAPSVSLYAVKVLNSSGSGSYSGIVSGIEWATTNGMDVINMSLGGASGSTAMKQAVDNAYAKGVVVVAAAGNSGSSGNTNTIGYPAKYDSVIAVGAVDSNSNRASFSSVGAELEVMAPGAGVYSTYPTNTYATLNGTSMASPHVAGAAALILSKHPNLSASQVRNRLSSTATYLGSSFYYGKGLINVEAAAQ |  |  | 17,8% | 10,5% | 
